Patent US20210246115A1 (Bioimics AB, priority 2017, published 2021)
pIC50: −log10 of the molar value. Counter-ions that a name gives are not always drawn.

What was measured:
[1] = test system: Escherichia coli (ATCC25922); test: MIC, broth microdilution (CLSI), Escherichia coli; settings: Escherichia coli, ATCC25922, read-out: E. coli ATCC 25922 MIC, Table XIII
[2] = test system: Staphylococcus aureus (ATCC25923); test: MIC, broth microdilution (CLSI), Staphylococcus aureus ATCC25923; settings: Staphylococcus aureus, ATCC25923, read-out: S. aureus ATCC 25923 MIC
[3] = test system: E. coli RNase P RNA, M1 RNA; test: Inhibition of bacterial RNase P activity, IC50 determination (cleavage of pATSerUG by M1 RNA); assay type: biochemical; settings: NI: No inhibition

MIC [1] [µg/mL] | MIC [2] [µg/mL] | pIC50 [3] | pIC50 ([3]; hydrochloride salt) | SMILES
128 | 128 | 3.84 | – | Cl.O=C(CCc1cn(CC2CCCCC2)c2ccccc12)NC1CCNCC1 [Compound 115, 3-(1-(cyclohexylmethyl)-1H-indol-3-yl)-N-(piperidin-4-yl)propanamide hydrochloride salt]
> 512 | 4 | 4.89 | – | Cl.N[C@H]1CC[C@H](NC(=O)CC(c2cccc(C(F)(F)F)c2)c2cn(CC3CCCCC3)c3ccccc23)CC1 (stereo partly drawn) [Compound 129, N-((1R,4R)-4-aminocyclohexyl)-3-(1-(cyclohexylmethyl)-1H-indol-3-yl)-3-(3-(trifluoromethyl)phenyl) propanamide hydrochloride salt]
> 512 | 10 | 4.89 | – | Cc1cccc(C(CC(=O)NCC2CCC(N)CC2)c2cn(CC3CCCCC3)c3ccc(Br)cc23)c1.Cl [Compound 214, N-(((1R,4R)-4-aminocyclohexyl)methyl)-3-(5-bromo-1-(cyclohexylmethyl)-1H-indol-3-yl)-3-(m-tolyl)propanamide hydrochloride salt]
134 | 17 | 4.96 | – | Cc1cccc(C(CC(=O)N2CCC(CCN)CC2)c2cn(CC3CCCCC3)c3ccccc23)c1.Cl (stereo not drawn) [Compound 181, 1-(4-(2-aminoethyl)piperidin-1-yl)-3-(1-(cyclohexylmethyl)-1H-indol-3-yl)-3-(m-tolyl)propan-1-one hydrochloride salt]
5 | 5 | – | 5.24 | Cc1cccc(C(CC(=O)NC2CCC(N)CC2)c2cn(CC3CCCCC3)c3cc(Br)ccc23)c1 [Compound 222, N-((1S,4S)-4-aminocyclohexyl)-3-(6-bromo-1-(cyclohexylmethyl)-1H-indol-3-yl)-3-(m-tolyl)propanamide hydrochloride salt]
134 | 8 | 4.49 | – | Cc1cccc(C(CC(=O)N[C@H]2CC[C@H](N)CC2)c2cn(C(C)C3CCCCC3)c3ccccc23)c1.Cl (stereo partly drawn) [Compound 299, N-((1r,4r)-4-aminocyclohexyl)-3-(1-(1-cyclohexylethyl)-1H-indol-3-yl)-3-(m-tolyl)propanamide hydrochloride salt]
> 512 | 5 | 5.24 | – | Cc1cccc(C(CC(=O)NC2CCC(N)CC2)c2cn(CC3CCCCC3)c3ccc(-c4ccncc4)cc23)c1 (stereo not drawn) [Compound 188, N-(4-aminocyclohexyl)-3-(1-(cyclohexylmethyl)-5-(pyridin-4-yl)-1H-indol-3-yl)-3-(m-tolyl) propanamide hydrochloride salt]
128 | 16 | 3.70 | – | Cc1cccc(C(CC(=O)NCCN(C)C)c2cn(CC3CCCCC3)c3ccccc23)c1.Cl (stereo not drawn) [Compound 103, 3-(1-(cyclohexylmethyl)-1H-indol-3-yl)-N-(2-(dimethylamino)ethyl)-3-(m-tolyl)propanamide hydrochloride salt]
64 | 16 | 4.35 | – | Cc1cccc(C(CC(=O)NCCC2CCNCC2)c2cn(CC3CCCCC3)c3ccccc23)c1.Cl (stereo not drawn) [Compound 92, 3-(1-(cyclohexylmethyl)-1H-indol-3-yl)-N-(2-(piperidin-4-yl)ethyl)-3-(m-tolyl)propanamide hydrochloride salt]
> 512 | 265 | 3.02 | – | Cc1cccc(C(CC(=O)NCCC2CCNCC2)c2cn(Cc3ccccc3)c3ncccc23)c1.Cl (stereo not drawn) [Compound 39, 3-(1-benzyl-1H-pyrrolo[2,3-b]pyridin-3-yl)-N-(2-(piperidin-4-yl)ethyl)-3-(m-tolyl)propanamide hydrochloride salt]
> 512 | 5 | 3.94 | – | Cc1cccc(C(CC(=O)NCC2CCC(CN)CC2)c2cn(CC3CCCCC3)c3ccc(Br)cc23)c1.Cl (stereo not drawn) [Compound 203, N-((4-(aminomethyl)cyclohexyl)methyl)-3-(5-bromo-1-(cyclohexylmethyl)-1H-indol-3-yl)-3-(m-tolyl)propanamide hydrochloride salt]
64 | 8 | 4.80 | – | Cc1cccc(C(CC(=O)N[C@H]2CC[C@H](N)CC2)c2cn(CC3CCCCC3)c3ccccc23)c1.Cl (stereo partly drawn) [Compound 104, N-((1R,4R)-4-aminocyclohexyl)-3-(1-(cyclohexylmethyl)-1H-indol-3-yl)-3-(m-tolyl)propanamide hydrochloride salt]
32 | 4 | 5.17 | – | Cc1cccc(C(CC(=O)N[C@H]2CC[C@H](N)CC2)c2cn(CC3CCCC3)c3ccccc23)c1.Cl (stereo partly drawn) [Compound 111, N-((1R,4R)-4-aminocyclohexyl)-3-(1-(cyclopentylmethyl)-1H-indol-3-yl)-3-(m-tolyl)propanamide hydrochloride salt]
> 512 | 240 | 3.53 | – | N[C@@H](Cc1cn(CC2CCCCC2)c2ccccc12)C(=O)N[C@H]1CC[C@H](N)CC1 [Compound 264, (S)-2-amino-N-((1R,4S)-4-aminocyclohexyl)-3-(1-(cyclohexylmethyl)-1H-indol-3-yl)propanamide hydrochloride salt]
2 | 2 | 4.83 | – | Cc1ccccc1-c1ccc2c(c1)c(CCN[C@H]1CC[C@H](N)CC1)cn2CC1CCCCC1 [Compound 244, (1R,4R)-N1-(2-(1-(cyclohexylmethyl)-5-(o-tolyl)-1H-indol-3-yl)ethyl)cyclohexane-1,4-diamine hydrochloride salt]
18 | 9 | 4.82 | – | Cc1cccc(C(CCNC[C@H]2CC[C@H](CN)CC2)c2cn(CC3CCCCC3)c3ccccc23)c1 (stereo partly drawn) [Compound 177, N-(((1R,4R)-4-(aminomethyl)cyclohexyl)methyl)-3-(1-(cyclohexylmethyl)-1H-indol-3-yl)-3-(m-tolyl)propan-1-amine hydrochloride salt]
54 | 54 | 4.37 | – | Cl.N[C@H]1CC[C@H](NC(=O)CCc2cc3ccccc3n2CC2CCCCC2)CC1 [Compound 276, N-((1R,4R)-4-aminocyclohexyl)-3-(1-(cyclohexylmethyl)-1H-indol-2-yl)propanamide hydrochloride salt]
40 | 10 | 4.24 | – | Cc1cccc(C(CC(=O)NC2CCC(N)CC2)c2cn(CC3CCCCC3)c3ccc(C4=CCNCC4)cc23)c1 [Compound 228, N-((1S,4S)-4-aminocyclohexyl)-3-(1-(cyclohexylmethyl)-5-(1,2,3,6-tetrahydropyridin-4-yl)-1H-indol-3-yl)-3-(m-tolyl)propanamide hydrochloride salt]
> 512 | 128 | 3.72 | – | Cl.N[C@H]1CC[C@H](NC(=O)CC(c2cn(CC3CCCCC3)c3ccccc23)C2CCOCC2)CC1 (stereo partly drawn) [Compound 132, N-((1R,4R)-4-aminocyclohexyl)-3-(1-(cyclohexylmethyl)-1H-indol-3-yl)-3-(tetrahydro-2H-pyran-4-yl)propanamide hydrochloride salt]
67 | 8 | 4.96 | – | COc1ccccc1-c1ccc2c(c1)c(CCC(=O)N[C@H]1CC[C@H](N)CC1)cn2CC1CCCCC1.Cl [Compound 230, N-((1R,4R)-4-aminocyclohexyl)-3-(1-(cyclohexylmethyl)-5-(2-methoxyphenyl)-1H-indol-3-yl)propanamide hydrochloride salt]
256 | 256 | 3.78 | – | Cl.O=C(CCc1cn(CC2CCCCC2)c2ccccc12)NCCC1CCNCC1 [Compound 117, 3-(1-(cyclohexylmethyl)-1H-indol-3-yl)-N-(2-(piperidin-4-yl)ethyl)propanamide hydrochloride salt]
32 | 8 | 4.37 | – | Cl.N[C@H]1CC[C@H](NC(=O)CC(c2cccc(F)c2)c2cn(CC3CCCCC3)c3ccccc23)CC1 (stereo partly drawn) [Compound 137, N-((1R,4R)-4-aminocyclohexyl)-3-(1-(cyclohexylmethyl)-1H-indol-3-yl)-3-(3-fluorophenyl) propanamide hydrochloride salt]
> 512 | 256 | 4.74 | – | Cl.N[C@H]1CC[C@H](NC(=O)CC(c2cccnc2)c2cn(Cc3ccccc3)c3ccccc23)CC1 (stereo partly drawn) [Compound 99, N-((1R,4R)-4-aminocyclohexyl)-3-(1-benzyl-1H-indol-3-yl)-3-(pyridin-3-yl)propanamide hydrochloride salt]
> 512 | 512 | 2.87 | – | N[C@H]1CC[C@H](NC(=O)CC(c2cn(CC3CCCCC3)c3ccccc23)C2CCNCC2)CC1 (stereo partly drawn) [Compound 107, N-((1r,4r)-4-aminocyclohexyl)-3-(1-(cyclohexylmethyl)-1H-indol-3-yl)-3-(piperidin-4-yl)propanamide hydrochloride salt]
32 | 8 | 4.41 | – | Cc1cccc(C(CC(=O)NC2CCNCC2)c2cn(CC3CCCCC3)c3ccc(F)cc23)c1.Cl (stereo not drawn) [Compound 118, 3-(1-(cyclohexylmethyl)-5-fluoro-1H-indol-3-yl)-N-(piperidin-4-yl)-3-(m-tolyl)propanamide hydrochloride salt]
128 | 128 | 3.41 | – | Cl.O=C(CC(c1cscn1)c1cn(CC2CCCCC2)c2ccccc12)NC1CCNCC1 (stereo not drawn) [Compound 101, 3-(1-(cyclohexylmethyl)-1H-indol-3-yl)-N-(piperidin-4-yl)-3-(thiazol-4-yl)propanamide hydrochloride salt]
5 | 2 | 4.92 | – | NC1CCC(NCCC(c2cc(Cl)cc(Cl)c2)c2cn(CC3CCCCC3)c3ccccc23)CC1 [Compound 171, (1S,4S)-N1-(3-(1-(cyclohexylmethyl)-1H-indol-3-yl)-3-(3,5-dichlorophenyl)propyl) cyclohexane-1,4-diamine hydrochloride salt]
